According to patent publication US6737383B1, “Herbicidal oxadiazolidines” (priority 1999, dated 2004):

Assays:
crabgrass = assay: Test B pre/postemergence crabgrass; type: in vivo, Digitaria sanguinalis
Outline: (§1)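 Test chemicals in a non-phytotoxic solvent mixture with surfactant were sprayed preemergence onto planted seeds and postemergence onto plants 2 to 18 cm tall (1- to 4-leaf stage). After twelve to sixteen days in a greenhouse, injury was visually rated against untreated controls from 0 (no effect) to 10 (complete control).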

morningglory = assay: Test B pre/postemergence morningglory; type: in vivo, Ipomoea hederacea
Outline: as §1

blackgrass = assay: Test B pre/postemergence blackgrass; type: in vivo, Alopecurus myosuroides
Outline: as §1

bamyardgrass = assay: Test B flood test barnyardgrass; type: in vivo, Echinochloa crus-galli; settings: for Plant response rating, Barnyardgrass (0 to 10 scale, 0 is no effect, 10 is complete control): Rate 62 g/ha, Pre-emergence; for Plant response rating, Barnyardgrass (0 to 10 scale, 0 is no effect, 10 is complete control) / Barnyardgrass plant response rating (0 to 10 scale, 0 is no effect, 10 is complete control): flood test species, visual evaluation after twelve to sixteen days; for Barnyardgrass plant response rating (0 to 10 scale, 0 is no effect, 10 is complete control): Rate 125 g/ha, under heading Pre-emergence
Outline: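 Plants were grown to the 2-leaf stage before treatment with test chemical, then held in a greenhouse for twelve to sixteen days. Injury was visually rated against untreated controls on a 0–10 scale, where 0 is no effect and 10 is complete control.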

[1] = Postemergence, Rate 62 g/ha, scale 0 to 10, 0 is no effect, 10 is complete control
[2] = Postemergence, Rate 125 g/ha, scale of 0 to 10 where 0 is no effect and 10 is complete control
[3] = Postemergence, Rate 250 g/ha, scale of 0 to 10, 0 is no effect, 10 is complete control
[4] = Postemergence, Rate 500 g/ha, scale of 0 to 10 where 0 is no effect and 10 is complete control
[5] = Preemergence, Rate 62 g/ha, scale 0 to 10 (0 no effect, 10 complete control)
[6] = Preemergence, Rate 125 g/ha, scale of 0 to 10 where 0 is no effect and 10 is complete control
[7] = Preemergence, Rate 250 g/ha, scale 0 to 10 (0 no effect, 10 complete control)
[8] = Preemergence, Rate 500 g/ha, scale of 0 to 10 where 0 is no effect and 10 is complete control
[9] = Rate 250 g/ha, Pre-emergence (flood test species), scale 0 to 10, 0 is no effect, 10 is complete control
[10] = Rate 500 g/ha, Pre-emergence section of Table B, 0 to 10 scale (0 no effect, 10 complete control)
[11] = Preemergence, Rate 62 g/ha, scale of 0 to 10 where 0 is no effect and 10 is complete control
[12] = Rate 500 g/ha, Postemergence, scale 0 to 10, 0 is no effect, 10 is complete control

Row | SMILES | Plant response rating, Crabgrass (crabgrass; [1]) | Crabgrass plant response rating (crabgrass; [3]) | Crabgrass plant response rating (crabgrass; [6]) | Plant response rating, Crabgrass (crabgrass; [7]) | Plant response rating, Crabgrass (crabgrass; [8]) | Plant response rating, Morningglory (morningglory; [1]) | Morningglory plant response rating (morningglory; [3]) | Plant response rating, Morningglory (morningglory; [4]) | Morningglory plant response rating (morningglory; [6]) | Plant response rating, Morningglory (morningglory; [7]) | Plant response rating, Morningglory (morningglory; [8]) | Plant response rating, Blackgrass (blackgrass; [1]) | Blackgrass plant response rating (blackgrass; [3]) | Plant response rating, Blackgrass (blackgrass; [4]) | Blackgrass plant response rating (blackgrass; [6]) | Plant response rating, Blackgrass (blackgrass; [7]) | Plant response rating, Barnyardgrass (0 to 10 scale, 0 is no effect, 10 is complete control) (bamyardgrass) | Barnyardgrass plant response rating (0 to 10 scale, 0 is no effect, 10 is complete control) (bamyardgrass) | Barnyardgrass plant response rating (bamyardgrass; [9]) | Barnyardgrass plant response rating (bamyardgrass; [10]) | other results
1 | CC(C)N(C(=O)n1oc(=O)n(CNC(=O)c2ccccc2)c1=O)c1ccc(F)cc1F [Compound 619] | 0 | 0 | 1 | 6 | 8 | 0 | 1 | 1 | 0 | 0 | 0 | 0 | 0 | 0 | 0 | 0 | 0 | 0 | 0 | 0 | Plant response rating, Crabgrass (crabgrass; [2]): 0; Plant response rating, Crabgrass (crabgrass; [4]): 2; Crabgrass plant response rating (crabgrass; [5]): 0; Plant response rating, Morningglory (morningglory; [2]): 1; Morningglory plant response rating (morningglory; [5]): 0; Plant response rating, Blackgrass (blackgrass; [2]): 0; Blackgrass plant response rating (blackgrass; [5]): 0; Blackgrass plant response rating (blackgrass; [8]): 0
2 | CC(=O)NCn1c(=O)on(C(=O)N(c2ccccc2)C(C)C)c1=O [Compound 621] | 0 | – | 6 | 7 | 8 | 1 | 2 | 8 | 0 | 0 | 0 | 0 | 0 | 0 | 0 | 0 | 0 | 0 | 0 | 0 | Plant response rating, Crabgrass (crabgrass; [2]): 3; Crabgrass plant response rating (crabgrass; [5]): 5; Plant response rating, Morningglory (morningglory; [2]): 2; Morningglory plant response rating (morningglory; [5]): 0; Plant response rating, Blackgrass (blackgrass; [2]): 0; Blackgrass plant response rating (blackgrass; [5]): 0; Blackgrass plant response rating (blackgrass; [8]): 0
3 | CC(=O)N(C)CCn1c(=O)on(C(=O)N(c2ccc(F)cc2)C(C)C)c1=O [Compound 625] | 1 | 4 | 7 | 8 | 10 | 0 | 1 | 2 | 0 | 2 | 3 | 0 | 7 | 7 | 3 | 7 | 0 | 0 | 0 | 0 | Plant response rating, Crabgrass (crabgrass; [2]): 0; Plant response rating, Crabgrass (crabgrass; [4]): 8; Crabgrass plant response rating (crabgrass; [5]): 2; Plant response rating, Morningglory (morningglory; [2]): 1; Morningglory plant response rating (morningglory; [5]): 0; Plant response rating, Blackgrass (blackgrass; [2]): 2; Blackgrass plant response rating (blackgrass; [5]): 0; Plant response rating, Blackgrass (blackgrass; [8]): 9
4 | CCCCCn1c(=O)on(C(=O)N(c2ccc(F)cc2F)C(C)C)c1=O [Compound 636] | 3 | 9 | 9 | 10 | 10 | 2 | 6 | 6 | 0 | 0 | 2 | 0 | 3 | 5 | 4 | 4 | 0 | 0 | 0 | 2 | Plant response rating, Crabgrass (crabgrass; [2]): 9; Plant response rating, Crabgrass (crabgrass; [4]): 9; Crabgrass plant response rating (crabgrass; [11]): 8; Plant response rating, Morningglory (morningglory; [2]): 2; Morningglory plant response rating (morningglory; [11]): 0; Plant response rating, Blackgrass (blackgrass; [2]): 0; Blackgrass plant response rating (blackgrass; [11]): 2; Plant response rating, Blackgrass (blackgrass; [8]): 7
5 | CC(C)N(C(=O)n1oc(=O)n(CC(=O)C2CCC2)c1=O)c1ccc(Cl)cc1 [Compound 643] | 0 | 0 | 3 | 9 | 10 | 0 | 4 | 6 | 0 | 0 | 0 | 0 | 0 | 4 | 0 | 0 | 0 | 0 | 0 | 0 | Crabgrass plant response rating (crabgrass; [2]): 0; Plant response rating, Crabgrass (crabgrass; [4]): 6; Crabgrass plant response rating (crabgrass; [11]): 0; Morningglory plant response rating (morningglory; [2]): 4; Morningglory plant response rating (morningglory; [11]): 0; Blackgrass plant response rating (blackgrass; [2]): 0; Blackgrass plant response rating (blackgrass; [11]): 0; Plant response rating, Blackgrass (blackgrass; [8]): 8
6 | CC[C@@H](C)n1c(=O)on(C(=O)N(c2ccc(Cl)cc2)C(C)C)c1=O [Compound 665] | 1 | 9 | 8 | 9 | 10 | 4 | 6 | – | 0 | 0 | 4 | 3 | 8 | – | 7 | 8 | 0 | 0 | 2 | 6 | Crabgrass plant response rating (crabgrass; [2]): 7; Crabgrass plant response rating (crabgrass; [11]): 6; Crabgrass plant response rating (crabgrass; [12]): 9; Morningglory plant response rating (morningglory; [2]): 6; Morningglory plant response rating (morningglory; [11]): 0; Morningglory plant response rating (morningglory; [12]): 8; Blackgrass plant response rating (blackgrass; [2]): 7; Blackgrass plant response rating (blackgrass; [11]): 5; Plant response rating, Blackgrass (blackgrass; [8]): 9; Blackgrass plant response rating (blackgrass; [12]): 8
7 | CC[C@@H](C)n1c(=O)on(C(=O)N(c2ccc(F)cc2F)C(C)C)c1=O [Compound 667] | 6 | 9 | 8 | 10 | 10 | 2 | 4 | – | 1 | 3 | 6 | 6 | 8 | – | 8 | 8 | 0 | 0 | 0 | 0 | Crabgrass plant response rating (crabgrass; [2]): 8; Crabgrass plant response rating (crabgrass; [11]): 8; Crabgrass plant response rating (crabgrass; [12]): 10; Morningglory plant response rating (morningglory; [2]): 2; Morningglory plant response rating (morningglory; [11]): 0; Morningglory plant response rating (morningglory; [12]): 6; Blackgrass plant response rating (blackgrass; [2]): 8; Blackgrass plant response rating (blackgrass; [11]): 8; Plant response rating, Blackgrass (blackgrass; [8]): 10; Blackgrass plant response rating (blackgrass; [12]): 8
